Reference: PubChem BioAssay AID1963831 (Molecular Pharmacology Branch, DTP, NCI, 2024)

Test system: 889142-216-R-J1-PDC complex spheroid viability
Experiment: Anticancer human tumor 889142-216-R-J1-PDC patient-derived bladder carcinoma cell line growth inhibition [POLQ]
Conditions: for IC50: curve of first compound; for viability, T/C: stronger effect = lower value
Description: Multicellular complex tumor spheroid response to Polymerase (POL) inhibitors (novobiocin, ART-558, RP6685) in combination with a variety of drugs and investigational agents in selected tumor cell lines
The POL inhibitors (novobiocin, ART-558, and RP6685) were evaluated both individually and in combination with standard of care and investigational anticancer small molecules within a complex spheroid model of solid tumors. . Complex spheroids include a stromal component modeled by human endothelial cells (HUVEC) and fibroblasts modeled by human mesenchymal stem cells (MSCs). The concentration ranges selected for each drug and investigational agent were based upon clinically achievable concentrations if the clinical Cmax of the agent was known.
Compounds. The drugs and investigational agents: novobiocin (NSC847541), ART-558 (NSC835418), RP-6685 (NSC848927), peposertib (NSC802822), ceralasertib (NSC780249), elimusertib (NSC800525), camonsertib (NSC841442), AZD-1390 (NSC803789), olaparib (NSC753686), talazoparib (NSC767125), rucaparib (NSC756644), sotorasib (NSC818433), MRTX-1133 (NSC836407), SN-38 (NSC673596), topotecan (NSC609699), epotoside (NSC141540), doxorubicin (NSC123127), gemcitabine (NSC613327), 5-fluorouracil (NSC19893), paclitaxel (NSC125973), vemurafenib (NSC761431), MSA-2 (NSC828583), SN-011 (NSC837082), adavosertib (NSC754352), prexasertib (NSC758257), carboplatin (NSC241240) and oxaliplatin (NSC266046), were obtained from the National Cancer Institute (NCI) Developmental Therapeutics Program Chemical Repository (21). The FDA-approved anticancer drug set is available from the Developmental Therapeutics Program at https://dtp.cancer.gov/organization/dscb/obtaining/. […] The stock solutions were prepared in dimethyl sulfoxide (DMSO, Sigma-Aldrich, St. Louis, MO, cat. D2650), except for the platinum compounds which were prepared in saline (Quality Biological, Gaithersburg, MD, cat. 114-055-101), at 800-fold the tested concentration and stored at -70 degrees C prior to their use. All drugs and investigational agents were tested over a range starting from a high concentration at or near the clinical Cmax and decreasing in half-log increments. If the clinical Cmax for an agent had not been determined, the highest concentration tested was 10 microM, except for SN-38, which was tested at a high concentration of 1 microM.
Cell Culture. All cells were maintained in an incubator at 37 degrees C and 5% CO2 with 95% humidity. The PDC lines were cultured according to standard operating procedures established by the NCI PDMR (https://pdmr.cancer.gov). Table 3 of the manuscript, lists the cell lines along with the number of the three cell types plated to form the mct-spheroids and media for tumor cell growth. After thawing, all PDC lines, except 997537-175-T-J1-PDC and 415267-285-R-J2-PDC, were cultured in Matrigel-coated flasks prepared with a working solution of 1X Ham's F-12 nutrient mix, without supplementation (Thermo Fisher Scientific, cat. 11765054), 100 U/mL penicillin-streptomycin (Thermo Fisher Scientific, cat. 15140122), and 2.5% Matrigel (Corning Inc., Corning, NY, cat. 354248) for the first three passages. The two PDC lines 997537-175-T-J1-PDC and 415267-285-R-J2-PDC were cultured on uncoated flasks. The 857933-349-R-J2-PDC line was cultured in 6C/Colon 1B media containing advanced DMEM/F-12 (Thermo Fisher Scientific, cat. 12634028), 10 mM HEPES (Thermo Fisher Scientific, cat. 15630080), 1X GlutaMAX supplement (Thermo Fisher Scientific, cat. 35050061), 0.1 mg/mL primocin (InvivoGen, San Diego, CA, cat. ant-pm-2), 10% defined fetal bovine serum, heat inactivated (HyClone Laboratories Inc., Logan, UT, cat. SH30070.03HI), 50% L-WRN conditioned media (ATCC, cat. CRL-3276), 1.25 mM N-Acetyl-L-cysteine (Sigma-Aldrich, cat. A9165), 10 mM nicotinamide (Sigma-Aldrich, cat. N0636), 1X B-27 supplement (Thermo Fisher Scientific, cat. 17504044), 1X N-2 supplement (Thermo Fisher Scientific, cat. […]
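Note: spheroids exposed to compounds for seven days.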
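Throughout, for viability, T/C: 100% = DMSO vehicle control viability.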

## O=C(c1cc(Cc2n[nH]c(=O)c3ccccc23)ccc1F)N1CCN(C(=O)C2CC2)CC1 + Cc1cccc(N(C)C(=O)C2C(O)CCN2c2nc(C)cc(C(F)(F)F)c2C#N)c1
Second compound 0.0316 µM
  IC50: > 10 µM
Second compound 0.1 µM
  IC50: > 10 µM
Second compound 0.316 µM
  IC50: > 10 µM
Second compound 1 µM
  IC50: > 10 µM
Second compound 3.16 µM
  IC50: > 10 µM
Second compound 10 µM
  IC50: > 10 µM
Second compound 0.0316 µM, first compound 0.0316 µM
  viability, T/C: 103%
Second compound 0.0316 µM, first compound 0.1 µM
  viability, T/C: 99.7%
Second compound 0.0316 µM, first compound 0.316 µM
  viability, T/C: 108%
Second compound 0.0316 µM, first compound 1 µM
  viability, T/C: 83.3%
Second compound 0.0316 µM, first compound 3.16 µM
  viability, T/C: 70.1%
Second compound 0.0316 µM, first compound 10 µM
  viability, T/C: 65%
Second compound 0.1 µM, first compound 0.0316 µM
  viability, T/C: 106%
Second compound 0.1 µM, first compound 0.1 µM
  viability, T/C: 116%
Second compound 0.1 µM, first compound 0.316 µM
  viability, T/C: 95%
Second compound 0.1 µM, first compound 1 µM
  viability, T/C: 98.2%
Second compound 0.1 µM, first compound 3.16 µM
  viability, T/C: 87.9%
Second compound 0.1 µM, first compound 10 µM
  viability, T/C: 63.6%
Second compound 0.316 µM, first compound 0.0316 µM
  viability, T/C: 92.2%
Second compound 0.316 µM, first compound 0.1 µM
  viability, T/C: 98.8%
Second compound 0.316 µM, first compound 0.316 µM
  viability, T/C: 97.5%
Second compound 0.316 µM, first compound 1 µM
  viability, T/C: 80.8%
Second compound 0.316 µM, first compound 3.16 µM
  viability, T/C: 72%
Second compound 0.316 µM, first compound 10 µM
  viability, T/C: 64.3%
Second compound 1 µM, first compound 0.0316 µM
  viability, T/C: 105%
Second compound 1 µM, first compound 0.1 µM
  viability, T/C: 98.5%
Second compound 1 µM, first compound 0.316 µM
  viability, T/C: 84.7%
Second compound 1 µM, first compound 1 µM
  viability, T/C: 77.3%
Second compound 1 µM, first compound 3.16 µM
  viability, T/C: 88.5%
Second compound 1 µM, first compound 10 µM
  viability, T/C: 68.5%
Second compound 3.16 µM, first compound 0.0316 µM
  viability, T/C: 91.3%
Second compound 3.16 µM, first compound 0.1 µM
  viability, T/C: 91.7%
Second compound 3.16 µM, first compound 0.316 µM
  viability, T/C: 88.8%
Second compound 3.16 µM, first compound 1 µM
  viability, T/C: 81.5%
Second compound 3.16 µM, first compound 3.16 µM
  viability, T/C: 73.7%
Second compound 3.16 µM, first compound 10 µM
  viability, T/C: 52.9%
Second compound 10 µM, first compound 0.0316 µM
  viability, T/C: 81.8%
Second compound 10 µM, first compound 0.1 µM
  viability, T/C: 81.3%
Second compound 10 µM, first compound 0.316 µM
  viability, T/C: 68.7%
Second compound 10 µM, first compound 1 µM
  viability, T/C: 85.8%
Second compound 10 µM, first compound 3.16 µM
  viability, T/C: 70.1%
Second compound 10 µM, first compound 10 µM
  viability, T/C: 52.4%
